Measured values reported in patent US20020114734A1, “Microplate thermal shift assay apparatus for ligand development and multi-variable protein chemistry optimization” (priority 1996, published 2002).
Read-outs that look alike come from different tables or passages of the source. Each block holds one compound with its values, some of them ahead of it. Where a SMILES comes first, the peptide text is derived from it. The star is where a group is joined. CH2Cl = ClC*

Tests used:
[1] = target: T1, human α-thrombin (Homo sapiens, UniProt P00734); assay: Microplate thermal shift screen of biochemical conditions, thrombin stability; conditions: for effect on human α-thrombin stability: 10% glycerol, 10 mM dithiothreitol
T1 construct: A stock human α-thrombin solution; purchased Enzyme Research Labs
Procedure: The microplate thermal shift assay was used, with four different fluorophores, to simultaneously screen the effects of multiple pH values, sodium chloride concentrations, and reduction-oxidation compounds on human α-thrombin stability. […] Reaction volume was 100 μL.

[2] = test system: D(II) FGF receptor 1; assay: Microplate thermal shift screen of biochemical conditions, D(II) FGF receptor 1 stability; set-up: species or system human; conditions: for effect on D(II) FGF receptor 1 stability: additives in 50 mM MOPS pH 7, 0.1 M NaCl
Procedure: The microplate thermal shift assay was used to simultaneously screen the effects of multiple biochemical conditions on D(II) FGF receptor 1 stability. The assays were performed by mixing 1 μL of D(II) FGFR1 (from a 500 μM concentrated stock in 50 mM HEPES pH 7.5) with 4 μL of each biochemical condition in wells of a 96-well polycarbonate microtiter plate. Final protein concentration after mixing was 100 μM and final 1,8-ANS concentration was 200 μM. Biochemical conditions were tested as follows: The pH's tested were 5 (Na acetate), 6 (MES), 7 (MOPS), 8 (HEPES), and 9 (CHES), with final buffer concentrations of 50 mM.
The salt concentrations tested were 0.1 or 0.5 M NaCl. Additives were tested in 50 mM MOPS, pH 7, 0.1 M NaCl, at final concentrations of 1 mM (EDTA, dithiothreitol), 10 mM (CaCl2, MgCl2, MgSO4, NiSO4), 50 mM (arginine), 100 mM ((NH4)2SO4, LiSO4, Na2SO4, ZnSO4), 5% w/v (polyethylene glycol 6000), and 10% v/v glycerol.
(§1) Thermal denaturation profiles were generated as previously described for thrombin, aFGF, Factor D, and Factor Xa, by incremental heating of the microplate followed by a fluorescence reading after each temperature increase. Data were analyzed by non-linear least squares fitting as described previously.

[3] = test system: human urokinase-type plasminogen activator (u-PA); assay: Miniaturized (5 μL) microplate thermal shift assay of urokinase; assay type: binding; conditions: CMK-u-PA complex, MOPS pH 7, NaCl, 1,8-ANS
From the text: Another target molecule analyzed was human urokinase-type plasminogen activator (u-PA). U-PA enzymatically converts plasminogen into the active protease plasmin. U-PA is involved in tissue remodeling, cellular migration and metastases. The gene for u-PA was obtained from ATCC (Rockville, Md.) and modified to appropriately express active enzyme in E. coli. u-PA was cloned, overexpressed in E. coli, and purified using procedures similar to those described by Winkler et al. (Biochemistry 25:4041-4045 (1986)). […] The experiment was performed in the miniaturized format in 5 μL well volume. One μL of concentrated CMK-u-PA (13 g/L, 371.4 μM) was added to 4 μL of 62.5 mM MOPS, pH 7, 125 mM NaCl, and 250 μM 1,8-ANS, in multiple wells of a 96-well polycarbonate V-bottom microtiter plate. A thermal denaturation curve was generated as previously described for thrombin, aFGF, D(II)FGFR1, Factor D, and Factor Xa, by incremental heating of the microplate followed by a fluorescence reading after each temperature increase.

[4] = test system: human urokinase; assay: Microplate thermal shift screen of biochemical conditions, urokinase stability; conditions: 0.1 or 0.5 M NaCl; 10% glycerol
Procedure: The microplate thermal shift assay was used to simultaneously screen the effects of multiple biochemical conditions on human urokinase stability. This experiment was performed by mixing 1 μL of urokinase (from a […] concentrated stock in 20 mM Tris pH 8) with 4 μL of each biochemical condition in wells of a 96-well polycarbonate microtiter plate. Final protein concentration after mixing was 74 μM and final 1,8-ANS concentration was 200 μM. Biochemical conditions were tested as follows: The pH's tested were 5 (acetate), 6 (MES), 7 (MOPS), 8 (HEPES), and 9 (CHES) with final buffer concentrations of 50 mM. The salt concentrations tested were 0.1 or 0.5 M NaCl. Glycerol was tested at 10% v/v in 50 mM MOPS, pH 7, 0.1 M NaCl.
as §1, with “D, D(II) FGFR1,” for “D,”

[5] = target: thrombin (Homo sapiens, UniProt P00734); conditions: 5 mM Tris buffer pH 8.0, 0.1% PEG, 25° C.; read-out: Kd of Na+ binding site; cited from earlier work
[6] = target: T2, heparin binding site of basic fibroblast growth factor (bFGF) (Homo sapiens, UniProt P09038); assay: Microplate thermal shift assay for ligands binding to bFGF; conditions: read-out: binding affinity
T2 construct: host or cells: E. coli
From the text: The microplate thermal shift assay was used to assess ligands for binding to the heparin binding site of basic fibroblast growth factor (bFGF). The gene for bFGF was purchased from R&D Systems and was cloned and expressed in E. coli as previously described (Thompson, L. D. et al., Biochemistry 33:3831-3840 (1994); Pantoliano, M. W. et al., Biochemistry 33:10229-10248 (1994); Springer, B. A. et al., J. Biol. Chem. 269:26879-26884 (1994)).

[7] = target: T3, acidic fibroblast growth factor (aFGF) (Homo sapiens, UniProt P05230); assay: Microplate thermal shift assay for ligands binding to aFGF, turbidity as signal
T3 construct: host or cells: E. coli
From the text: The second therapeutic receptor tested in the microplate thermal shift assay was acidic fibroblast growth factor (aFGF), a growth factor that plays a key role in angiogenesis (Folkman, J. et al., J. Biol. Chem. 267:10931-10934 (1992)). A synthetic gene for this protein was purchased from R&D Systems (Minneapolis, Minn.), and was cloned and expressed in E. coli using methods similar to those described for basic fibroblast growth factor (bFGF) (Thompson, L. D. et al., Biochemistry 33:3831-3840 (1994); Pantoliano, M. W. et al., Biochemistry 33:10229-10248 (1994); Springer, B. A. et al., J. Biol. Chem. 269:26879-26884 (1994)). Recombinant aFGF was then purified by heparin-sepharose affinity chromatography as described (Thompson, L. D. et al., Biochemistry 33:3831-3840 (1994)). aFGF is also known to bind heparin/heparan, which is a cofactor for mitogenic activity. […] A microplate thermal assay of these compounds was set up in a way similar to that described above for human α-thrombin. […] The affinity constants covered a fairly broad range of binding affinities, with pentosan PSO4 showing the highest affinity.

[8] = target: T4, D(II) FGFR1 (Homo sapiens, UniProt P11362); assay: Miniaturized (10 μL) microplate thermal shift assay; assay type: binding
T4 construct: hexa-histidine (N); made in house
T4 sequence (P11362 158-246 limits assumed): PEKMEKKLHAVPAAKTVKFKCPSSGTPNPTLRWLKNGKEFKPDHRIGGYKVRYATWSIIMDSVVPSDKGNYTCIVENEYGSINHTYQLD
Procedure: Recombinant D(II) FGFR1 was purified from inclusion bodies and purified by affinity chromatography on heparin sepharose. A stock solution of D(II) FGFR1 (15 mg/mL; 1.1 mM) was diluted to 50 μM in assay buffer (50 mM Hepes, pH 7.5, 0.1 M NaCl). The assay volume was 10 μL and the concentration of 1,8-ANS was 250 μM.

T3 sequence (P05230 whole entry, species assumed): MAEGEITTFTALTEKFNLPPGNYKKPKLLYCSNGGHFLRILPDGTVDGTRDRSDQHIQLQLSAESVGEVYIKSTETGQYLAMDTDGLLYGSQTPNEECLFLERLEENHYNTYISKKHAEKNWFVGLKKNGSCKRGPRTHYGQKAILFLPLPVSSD
T2 sequence (P09038 134-288, species assumed): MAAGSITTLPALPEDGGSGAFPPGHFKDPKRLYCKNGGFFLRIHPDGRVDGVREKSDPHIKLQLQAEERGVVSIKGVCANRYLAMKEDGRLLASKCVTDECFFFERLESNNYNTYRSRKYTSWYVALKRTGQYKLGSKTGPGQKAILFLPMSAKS

effect on human α-thrombin stability [1]: destabilizing effect | effect on D(II) FGF receptor 1 stability [2]: destabililzed the protein
Structure (SMILES): O[C@H](CS)[C@H](O)CS (racemic) [dithiothreitol]

effect on D(II) FGF receptor 1 stability [2]: stabilizing effects
Structure (SMILES): N.N.O=S(=O)(O)O [(NH4)2SO4]

Structure (SMILES): N=C(N)NCCC[C@H](NC(=O)CNC(=O)[C@@H](N)CCC(=O)O)C(=O)CCl [CMK, glu-gly-arg-chloromethylketone] (H-Glu-Gly-Arg-CH2Cl)
Tm [3]: 81 °C

effect on D(II) FGF receptor 1 stability [2]: stabilizing effects
Structure (SMILES): O=S(=O)([O-])[O-].[Li+].[Li+] [Li2SO4]

effect on D(II) FGF receptor 1 stability [2]: stabilized the protein | effect on D(II) FGF receptor 1 stability ([2]; listed as Mg2SO4): stabilizing effects
Structure (SMILES): O=S(=O)([O-])[O-].[Mg+2] [MgSO4]

effect on D(II) FGF receptor 1 stability [2]: stabilizing effects
Structure (SMILES): O=S(=O)([O-])[O-].[Na+].[Na+] [Na2SO4]

Structure (SMILES): [Cl-].[Na+] [NaCl, sodium chloride]
ΔTm ([1]; NaCl concentration increased from 0 to 0.5 M): about 12 °C | Kd ([1]; near the Tm (53° C.), 50 mM Hepes pH 8.0, zero and 0.10 M NaCl, read-out: NaCl binding (estimated with equation (1))): ~6 mM | ΔTm ([2]; NaCl concentration increased from 0.1 to 0.5 M): about 5 °C | effect on human urokinase stability [4]: stabilized the protein | Kd [5]: 30 ± 3 mM

Structure (SMILES): Cc1ccc(C(=O)Nc2ccc(S(=O)(=O)O)c3cc(S(=O)(=O)O)cc(S(=O)(=O)O)c23)cc1NC(=O)c1cccc(NC(=O)Nc2cccc(C(=O)Nc3cc(C(=O)Nc4ccc(S(=O)(=O)O)c5cc(S(=O)(=O)O)cc(S(=O)(=O)O)c45)ccc3C)c2)c1 [Suramin, suramin]
Kd [6]: 3.5 µM | Tm ([7]; aFGF/ligand, aFGF 0.25 mg/mL, ligand 47-200 μM, turbidity): 330.15 ° K | Kd ([7]; equation (1), estimated ΔHu 60.0 kcal/mole, ΔCpu 0.95 kcal/mole-°K, read-out: Kd at Tm): 3220 nM | Kd ([7]; equation (3), ΔHL estimated −10.0 kcal/mole, read-out: Kd at 298° K Observed): 622 nM | ΔTm ([7]; relative to aFGF alone (317.15 ° K)): 13.0 ° K

unfolding transition (Tm) ([8]; aprosulate 300 uM): about 320 K | increase of unfolding transition ([8]; aprosulate 300 uM, 50 μM D(II) FGFR1, 10 μL): about 8 K | Kd ([8]; estimate, read-out: binding affinity at the Tm): ~18 µM
Structure (SMILES): O=C(NCCCNC(=O)[C@H](OS(=O)(=O)O)[C@@H](OS(=O)(=O)O)[C@H](O[C@@H]1O[C@H](COS(=O)(=O)O)[C@H](OS(=O)(=O)O)[C@H](OS(=O)(=O)O)[C@H]1OS(=O)(=O)O)[C@@H](COS(=O)(=O)O)OS(=O)(=O)O)[C@H](OS(=O)(=O)O)[C@@H](OS(=O)(=O)O)[C@H](O[C@@H]1O[C@H](COS(=O)(=O)O)[C@H](OS(=O)(=O)O)[C@H](OS(=O)(=O)O)[C@H]1OS(=O)(=O)O)[C@@H](COS(=O)(=O)O)OS(=O)(=O)O [aprosulate]

Structure (SMILES): N=C(N)NCCC[C@H](N)C(=O)O [arginine]
effect on D(II) FGF receptor 1 stability [2]: stabilized the protein

effect on human α-thrombin stability [1]: stabilizing effect | effect on D(II) FGF receptor 1 stability [2]: stabilized the protein | effect on human urokinase stability [4]: stabilized the protein
Structure (SMILES): OCC(O)CO [glycerol]
